Measured values taken from patent US20250326753A1, “DUAL CXCR4-BTK INHIBITORS” (X4 Pharmaceuticals, Inc., priority 2022, published 2025).
pIC50: −log10 of the molar value.

Assays:
[1] = target: T1, CXCR4 (Homo sapiens, UniProt P61073); test: Chemokine (CXCL12-AF647) binding inhibition assay, Jurkat cells expressing CXCR4; conditions: CXCL12-AF647 25 ng/ml, read-out: IC50 CXCL-12 binding Jurkat
Protocol: Jurkat cells expressing CXCR4 were washed once with assay buffer (Hanks' balanced salt solution with 20 mM HEPES buffer and 0.2% bovine serum albumin, pH 7.4) and then incubated for 15 min at room temperature with the test compounds diluted in assay buffer at dose-dependent concentrations. Subsequently, CXCL12-AF647 (25 ng/ml) was added to the compound-incubated cells. The cells were incubated for 30 min at room temperature. Thereafter, the cells were washed twice in assay buffer, fixed in 1% paraformaldehyde in PBS, and analyzed on the FL4 channel of a FACSCalibur flow cytometer equipped with a 635-nm red diode laser (Becton Dickinson, San Jose, CA, USA).
The percentages of inhibition of CXCL12-AF647 binding were calculated according to the formula: [1−((MFI−MFINC)/(MFIPC−MFINC))]×100 where MFI is the mean fluorescence intensity of the cells incubated with CXCL 12-AF647 in the presence of the inhibitor, MFINC is the mean fluorescence intensity measured in the negative control (i.e., autofluorescence of unlabeled cells), and MFIPC is the mean fluorescence intensity of the positive control (i.e., cells exposed to CXCL12-AF647 alone).

[2] = target: T2, BTK (Bruton tyrosine kinase) (Homo sapiens, UniProt Q06187); test: BTK screening assay (33PanQinase Activity Assay, radiometric); format: biochemical; conditions: Inhibition of BTK, radiometric 33PanQinase Activity Assay, 3 μM ATP, 10 concentrations in singlicate, top 10 μM; read-out: 33PanQinase ® Radiometric IC50
T2 construct: GST or His (the text leaves open which); purchased Reaction Biology Europe GmbH Lot 012,11; host or cells: Sf9 insect cells or E. coli (not resolved)
Protocol: Inhibition of BTK activity was evaluated using a radiometric protein kinase assay (33PanQinase® Activity Assay) to measure the activity of BTK (Bruton tyrosine kinase).
Kinase assays were performed in 96-well ScintiPlates™ from Perkin Elmer (Boston, MA, USA) in a 50 μL reaction volume. The reaction cocktail was pipetted in four steps in the following order: 10 μL of non-radioactive ATP solution (in H2O); 25 μL of assay buffer/[γ-^33P]-ATP mixture; 5 μL of compound test sample in 10% DMSO; 10 μL of enzyme/substrate mixture.
BTK kinase was expressed in Sf9 insect cells or in E. coli as recombinant GST-fusion proteins or His-tagged proteins, either as full-length or enzymatically active fragments from human cDNAs, and purified by either GSH-affinity chromatography or immobilized metal. Purity was examined by SDS-PAGE/Coomassie staining, and identity confirmed by mass spectroscopy.
The reaction cocktails were incubated at 30° C. for 60 minutes. The reaction was stopped with 50 μL of 2% (v/v) H3PO4, plates were aspirated and washed two times with 200 μL 0.9% (w/v) NaCl. Incorporation of ^33Pi (counting of “cpm”) was determined with a microplate scintillation counter (Microbeta, Wallac).
The median value of the counts in wells containing assay buffer without enzyme, and without test compound was defined as “low control.” This value reflects unspecific binding of radioactivity to the plate in the absence of a protein kinase but in the presence of the substrate. The median value of the counts in wells containing assay buffer without test compound was defined as the “high control,” i.e. full activity in the absence of any inhibitor. The difference between high and low control was taken as 100% activity. Residual activity (in %) was calculated using the following formula: Res. Activity (%)=100×[(cpm of compound-low control)/(high control-low control)].
The fitting method used was a least-squares fit.

[3] = target: T1, CXCR4; test: Intracellular CXCL-12-induced calcium mobilization assay (FLIPR), U87.CXCR4 cells; format: cell-based; parameters: expressed in transfected cells; host or cells: U87 (U87.CXCR4); conditions: CXCL-12 25-50 ng/ml, read-out: IC50 CXCL-12 Ca2+ flux U87.CXCR4+
Protocol: Intracellular calcium mobilization induced by chemokines or chemokine-derived peptides were evaluated using a calcium responsive fluorescent probe and a FLIPR system. The CXCR-4 transfected U87 cell line (U87.CXCR4) cells were seeded in gelatine-coated black-wall 96-well plates at 20,000 cells per well and incubated for 12 hours. Cells were then loaded with the fluorescent calcium probe Fluo-2 acetoxymethyl at 4 μM final concentration in assay buffer (Hanks' balanced salt solution with 20 mM HEPES buffer and 0.2% bovine serum albumin, pH 7.4) for 45 min at 37° C. The intracellular calcium mobilization induced by the CXCL-12 (25-50 ng/ml) was then measured at 37° C. by monitoring the fluorescence as a function of time in all the wells simultaneously using a fluorometric imaging plate reader (FLIPR Tetra, Molecular Devices).

T2 sequence (Q06187 whole entry): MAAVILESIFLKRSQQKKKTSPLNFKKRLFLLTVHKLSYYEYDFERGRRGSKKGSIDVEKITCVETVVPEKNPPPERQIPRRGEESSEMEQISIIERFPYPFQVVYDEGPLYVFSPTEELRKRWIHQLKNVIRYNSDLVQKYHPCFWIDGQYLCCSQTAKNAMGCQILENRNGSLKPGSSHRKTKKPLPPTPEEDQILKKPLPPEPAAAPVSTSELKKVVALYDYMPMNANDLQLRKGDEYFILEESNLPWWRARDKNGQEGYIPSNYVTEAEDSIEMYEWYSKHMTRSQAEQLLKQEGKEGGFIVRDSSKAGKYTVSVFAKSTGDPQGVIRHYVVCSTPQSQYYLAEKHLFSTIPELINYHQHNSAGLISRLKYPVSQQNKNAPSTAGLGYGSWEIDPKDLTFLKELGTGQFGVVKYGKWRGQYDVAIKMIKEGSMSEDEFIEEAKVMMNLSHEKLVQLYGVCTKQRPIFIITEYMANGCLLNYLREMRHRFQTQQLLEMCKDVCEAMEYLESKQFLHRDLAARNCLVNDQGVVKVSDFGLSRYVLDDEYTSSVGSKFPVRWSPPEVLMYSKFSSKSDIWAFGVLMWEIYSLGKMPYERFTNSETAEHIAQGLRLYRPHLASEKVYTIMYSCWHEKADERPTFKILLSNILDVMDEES
T1 sequence (P61073 whole entry): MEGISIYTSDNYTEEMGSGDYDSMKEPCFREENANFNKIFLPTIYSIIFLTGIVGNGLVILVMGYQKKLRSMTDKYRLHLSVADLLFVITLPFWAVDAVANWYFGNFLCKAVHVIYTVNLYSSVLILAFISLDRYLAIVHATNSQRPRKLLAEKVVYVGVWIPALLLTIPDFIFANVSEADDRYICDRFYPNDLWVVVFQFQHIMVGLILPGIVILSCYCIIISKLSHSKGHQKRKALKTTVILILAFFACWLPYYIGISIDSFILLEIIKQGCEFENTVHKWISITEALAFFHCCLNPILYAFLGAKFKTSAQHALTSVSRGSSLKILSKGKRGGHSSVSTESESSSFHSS

Row | pIC50 [1] | pIC50 [2] | pIC50 [3] | SMILES
1 | 6.00 to 7.00 | 7.00 to 9.00 | < 5.60 | Cc1cccnc1[C@H]1CCC[C@@H](c2ncccc2C)N1CCCNC(=O)[C@@H]1CC[C@@H](Nc2ncnc3[nH]cc(C(=O)c4ccc(Oc5ccccc5)cc4Cl)c23)CO1 [Compound I-20]
2 | 7.00 to 9.00 | 7.00 to 9.00 | 6.00 to 7.00 | Cc1cccnc1[C@H]1CC(COC(=O)[C@@H]2CC[C@@H](Nc3ncnc4[nH]cc(C(=O)c5ccc(Oc6ccccc6)cc5Cl)c34)CO2)C[C@@H](c2ncccc2C)N1CCCCN (stereo partly drawn) [Compound I-21]
3 | 7.00 to 9.00 | 7.00 to 9.00 | 6.00 to 7.00 | Cc1cccnc1[C@H]1CC(C(=O)OC[C@@H]2CC[C@@H](Nc3ncnc4[nH]cc(C(=O)c5ccc(Oc6ccccc6)cc5Cl)c34)CO2)C[C@@H](c2ncccc2C)N1CCCCN (stereo partly drawn) [Compound I-22]
4 | < 5.60 | 5.60 to 6.00 | < 5.60 | Cc1cc(-c2ncnc3[nH]c(S(=O)(=O)NCCN4[C@@H](c5ncccc5C)CCC[C@H]4c4ncccc4C)cc23)ccc1CNC(=O)c1ccc(C(C)(C)C)cc1 [Compound I-26]
5 | 6.00 to 7.00 | 6.00 to 7.00 | < 5.60 | Cc1cc(-c2ncnc3[nH]c(S(=O)(=O)NCCCN4[C@@H](c5ncccc5C)CCC[C@H]4c4ncccc4C)cc23)ccc1CNC(=O)c1ccc(C(C)(C)C)cc1 [Compound I-27]
6 | 6.00 to 7.00 | 5.60 to 6.00 | < 5.60 | Cc1cc(-c2ncnc3[nH]c(S(=O)(=O)NCCCCN4[C@@H](c5ncccc5C)CCC[C@H]4c4ncccc4C)cc23)ccc1CNC(=O)c1ccc(C(C)(C)C)cc1 [Compound I-28]
7 | 7.00 to 9.00 | 6.00 to 7.00 | 7.00 to 9.00 | Cc1cccnc1[C@H]1CCC[C@@H](c2ncccc2C)N1CCCN1CCN(C(=O)c2ccc(-c3cc4c(-c5cccc(NC(=O)c6ccccc6)c5C)ncnc4[nH]3)cc2)CC1 [Compound I-30]
8 | 7.00 to 9.00 | 6.00 to 7.00 | 7.00 to 9.00 | Cc1cccnc1[C@H]1CCC[C@@H](c2ncccc2C)N1CCCCN1CCN(C(=O)c2ccc(-c3cc4c(-c5cccc(NC(=O)c6ccccc6)c5C)ncnc4[nH]3)cc2)CC1 [Compound I-31]
9 | 7.00 to 9.00 | 7.00 to 9.00 | < 5.60 | Cc1cccnc1[C@H]1CCC[C@@H](c2ncccc2C)N1CCN1CCN(C(=O)c2ccc(-c3cc4c(-c5cccc(NC(=O)c6ccc(C(C)C)cc6)c5C)ncnc4[nH]3)cc2)CC1 [Compound I-32]
10 | 7.00 to 9.00 | 6.00 to 7.00 | 6.00 to 7.00 | Cc1cccnc1[C@H]1CCC[C@@H](c2ncccc2C)N1CCN1CCN(C(=O)c2ccc(-c3cc4c(-c5cccc(NC(=O)c6cccc(C(C)C)c6)c5C)ncnc4[nH]3)cc2)CC1 [Compound I-33]
11 | 7.00 to 9.00 | 6.00 to 7.00 | 6.00 to 7.00 | Cc1cccnc1[C@H]1CCC[C@@H](c2ncccc2C)N1CCN1CCN(C(=O)c2ccc(-c3cc4c(-c5cccc(NC(=O)c6ccc(C(F)(F)F)cc6)c5C)ncnc4[nH]3)cc2)CC1 [Compound I-34]
12 | 7.00 to 9.00 | 7.00 to 9.00 | 7.00 to 9.00 | Cc1cccnc1[C@H]1CCC[C@@H](c2ncccc2C)N1CCNC1CN(C(=O)c2ccc(-c3cc4c(-c5cccc(NC(=O)c6ccc(C(C)C)cc6)c5C)ncnc4[nH]3)cc2)C1 [Compound I-35]
13 | 7.00 to 9.00 | 5.60 to 6.00 | 6.00 to 7.00 | Cc1cccnc1[C@H]1CCC[C@@H](c2ncccc2C)N1CCNC1CN(C(=O)c2ccc(-c3cc4c(-c5cccc(NC(=O)c6cccc(C(C)C)c6)c5C)ncnc4[nH]3)cc2)C1 [Compound I-36]
14 | 7.00 to 9.00 | 6.00 to 7.00 | 7.00 to 9.00 | Cc1cccnc1[C@H]1CCC[C@@H](c2ncccc2C)N1CCNC1CN(C(=O)c2ccc(-c3cc4c(-c5cccc(NC(=O)c6ccc(C(F)(F)F)cc6)c5C)ncnc4[nH]3)cc2)C1 [Compound I-37]
15 | 7.00 to 9.00 | 7.00 to 9.00 | 6.00 to 7.00 | Cc1cc(-c2ncnc3[nH]c(C(=O)NCCCN4[C@@H](c5ncccc5C)CCC[C@H]4c4ncccc4C)cc23)ccc1CNC(=O)c1ccc(C(C)C)cc1 [Compound I-38]
16 | 7.00 to 9.00 | 6.00 to 7.00 | < 5.60 | Cc1cc(-c2ncnc3[nH]c(C(=O)NCCCN4[C@@H](c5ncccc5C)CCC[C@H]4c4ncccc4C)cc23)ccc1CNC(=O)c1cccc(C(C)C)c1 [Compound I-39]
17 | 7.00 to 9.00 | 7.00 to 9.00 | < 5.60 | Cc1cc(-c2ncnc3[nH]c(C(=O)NCCCN4[C@@H](c5ncccc5C)CCC[C@H]4c4ncccc4C)cc23)ccc1CNC(=O)c1ccc(C(F)(F)F)cc1 [Compound I-40]
18 | 7.00 to 9.00 | 7.00 to 9.00 | < 5.60 | COC1CN(C(=O)NCc2ccc(-c3ccnc(Nc4cnn(CCN5[C@@H](c6ncccc6C)CCC[C@H]5c5ncccc5C)c4)n3)cc2C)C1 [Compound I-41]
19 | 7.00 to 9.00 | 7.00 to 9.00 | 6.00 to 7.00 | Cc1cc(-c2ccnc(Nc3cnn(CCN4[C@@H](c5ncccc5C)CCC[C@H]4c4ncccc4C)c3)n2)ccc1CNC(=O)N1CC(OC(C)(C)C)C1 [Compound I-42]
20 | 7.00 to 9.00 | 7.00 to 9.00 | 6.00 to 7.00 | Cc1cc(-c2ccnc(Nc3cnn(CCN4[C@@H](c5ncccc5C)CCC[C@H]4c4ncccc4C)c3)n2)ccc1CNC(=O)N1CC(OC(F)(F)F)C1 [Compound I-43]
21 | 7.00 to 9.00 | 7.00 to 9.00 | 6.00 to 7.00 | Cc1cc(-c2ncnc3[nH]c(C(=O)NCCCCN4[C@@H](c5ncccc5C)CCC[C@H]4c4ncccc4C)cc23)ccc1CNC(=O)c1ccc(C(C)C)cc1 [Compound I-44]
22 | 7.00 to 9.00 | 7.00 to 9.00 | 5.60 to 6.00 | Cc1cc(-c2ncnc3[nH]c(C(=O)NCCCCN4[C@@H](c5ncccc5C)CCC[C@H]4c4ncccc4C)cc23)ccc1CNC(=O)c1cccc(C(C)C)c1 [Compound I-45]
23 | 7.00 to 9.00 | 7.00 to 9.00 | 6.00 to 7.00 | Cc1cc(-c2ncnc3[nH]c(C(=O)NCCCCN4[C@@H](c5ncccc5C)CCC[C@H]4c4ncccc4C)cc23)ccc1CNC(=O)c1ccc(C(F)(F)F)cc1 [Compound I-46]
24 | < 5.60 | < 5.60 | < 5.60 | Cc1cccnc1[C@H]1CC(Cn2cc(-c3ccc(Oc4ccccc4)cc3)c3c(N)ncnc32)C[C@@H](c2ncccc2C)N1CCCCN (stereo partly drawn) [Compound I-61]
25 | 5.60 to 6.00 | < 5.60 | < 5.60 | Cc1cccnc1[C@H]1CCC[C@@H](c2ncccc2C)N1CCn1cc(-c2ccc(Oc3ccccc3)cc2)c2c(N)ncnc21 [Compound I-63]
26 | < 5.60 | < 5.60 | < 5.60 | Cc1cccnc1[C@H]1CCC[C@@H](c2ncccc2C)N1CCCn1cc(-c2ccc(Oc3ccccc3)cc2)c2c(N)ncnc21 [Compound I-64]
27 | < 5.60 | 7.00 to 9.00 | < 5.60 | Cc1cc(-c2ccnc(Nc3cnn(CCN4CCCCC4c4ncccc4C)c3)n2)ccc1CNC(=O)N1CC(OC(C)C)C1 (stereo not drawn) [Compound I-66]
